Values of other authors as cited in article PMC4875922 (Drugs in R&D, 2016).

How the values were obtained:
[1] = not given; remark: listed apart in the source

linearity of pharmacokinetics: non-linear pharmacokinetics
Structure (SMILES): O=C(Nc1cccnn1)N1CCC(=Cc2cccc(Oc3ccc(C(F)(F)F)cn3)c2)CC1 [PF-04457845]
tolerability (at doses that cause maximal inhibition of FAAH and elevation of plasma endocannabinoids): well tolerated
effect in phase II study in osteoarthritic pain [1]: without effect
